Source: patent US8906904B2, “Alkoxy pyrazoles as soluble guanylate cyclase activators” (Boehringer Ingelheim International GmbH, priority 2012, dated 2014)
≈ marks a conversion by molar mass, not a printed value.

Experiment: Assessment of solubility (McIlvaine buffers, 24 h shake, UPLC-UV)
Type: physicochemical
Conditions: kinetic from dmso stock
Procedure, shortened: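 Compounds from 10 mM DMSO stocks were shaken for 24 h at room temperature in McIlvaine buffers at pH 2.2, 4.5 and 6.8 (2.5% v/v DMSO final), then filtered. Filtrates were quantified by UPLC-UV at 254 nm against a 50:50 acetonitrile/water reference assumed fully dissolved, as a single determination.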

SMILES | solubility at 24 h (pH 2.2, aqueous buffer) [µg/mL] | solubility at 24 h (pH 4.5, aqueous buffer) [µg/mL] | solubility at 24 h (pH 6.8, aqueous buffer) [µg/mL]
CCOc1c(C(=O)O)cnn1-c1cccc(-c2cccc(C)c2OCc2ccc3c(c2F)CCN(C2CCOCC2)C3)n1 [Compound 159] | 86 (≈ 147 µM) | 55 (≈ 93.8 µM) | 51 (≈ 86.9 µM)
CCOc1c(C(=O)O)cnn1-c1cccc(-c2cccc(C)c2OCc2cc(C)c3c(c2)CCN(C2CCCOC2)C3)n1 (stereo not drawn) [Compound 173] | 130 (≈ 223 µM) | 98 (≈ 168 µM) | 97 (≈ 166 µM)
CCOc1c(C(=O)O)cnn1-c1cccc(-c2cccc(C)c2OCc2ccc3c(c2C)CCN(CC2CCCOC2)C3)n1 (stereo not drawn) [Compound 146] | 100 (≈ 168 µM) | 88 (≈ 147 µM) | 79 (≈ 132 µM)
COc1c(C(=O)O)cnn1-c1cccc(-c2cccc(C)c2OCc2ccc3c(c2C)CCN([C@@H]2CCOC2)C3)n1 [Compound 106] | 88 (≈ 159 µM) | 69 (≈ 124 µM) | 73 (≈ 132 µM)
COc1c(C(=O)O)cnn1-c1cccc(-c2cc(C)ccc2OCc2ccc3c(c2C)CCN(C2CCOCC2)C3)n1 [Compound 124] | 100 (≈ 176 µM) | 8.6 (≈ 15.1 µM) | 44 (≈ 77.4 µM)
CCOc1c(C(=O)O)cnn1-c1cccc(-c2cccc(C)c2OCc2ccc3c(c2C)CCN(C2CCOCC2)CC3)n1 [Compound 162] | 100 (≈ 168 µM) | 83 (≈ 139 µM) | 82 (≈ 137 µM)
COc1c(C(=O)O)cnn1-c1cccc(-c2cccc(C(F)(F)F)c2OCc2ccc3c(c2)CCN(C2COC2)C3)n1 [Compound 9] | 94 (≈ 162 µM) | 70 (≈ 121 µM) | 82 (≈ 141 µM)
CCOc1c(C(=O)O)cnn1-c1cccc(-c2cccc(C)c2OCc2cc(C)c3c(c2)CCN(C2CCOCC2)C3)n1 [Compound 169] | 120 (≈ 206 µM) | 100 (≈ 172 µM) | 97 (≈ 166 µM)
CC[C@H](C)Oc1c(C(=O)O)cnn1-c1cccc(-c2cccc(C)c2OCc2ccc3c(c2C)CCN(C2CCOC2)C3)n1 (stereo partly drawn) [Compound 137] | 110 (≈ 184 µM) | 98 (≈ 164 µM) | 110 (≈ 184 µM)
CCOc1c(C(=O)O)cnn1-c1cccc(-c2cccc(C)c2OCc2ccc3c(c2)CCN([C@H]2CCOC2)C3)n1 [Compound 110] | 130 (≈ 234 µM) | 96 (≈ 173 µM) | 120 (≈ 216 µM)
Cc1cc(COc2c(C)cccc2-c2cccc(-n3ncc(C(=O)O)c3OC(C)C)n2)cc2c1CN(C1CCOCC1)CC2 [Compound 161] | 110 (≈ 184 µM) | 91 (≈ 152 µM) | 97 (≈ 163 µM)
Cc1cccc(-c2cccc(-n3ncc(C(=O)O)c3OC(C)C)n2)c1OCc1ccc2c(c1C)CCN(C1CCOCC1)C2 [Compound 104] | 110 (≈ 184 µM) | 93 (≈ 156 µM) | 97 (≈ 163 µM)
COc1c(C(=O)O)cnn1-c1cccc(-c2cccc(C)c2OCc2ccc3c(c2C(F)(F)F)CCN(C2CCOCC2)C3)n1 [Compound 166] | 110 (≈ 177 µM) | 51 (≈ 81.9 µM) | 64 (≈ 103 µM)
